Drawing on patent US20100004238A1, “FUSED HETEROCYCLIC COMPOUND” (TAKEDA PHARMACEUTICAL COMPANY LIMITED, priority 2006, published 2010), this text covers inhibition and IC50 for 14 molecules.

What is called IC50 is the midpoint of a concentration-inhibition curve.

Experiment [1] addresses T1, HER2 intracellular domain (HER2 kinase) (Homo sapiens, UniProt P04626).
T1 construct: made in house; host or cells: SF-21 insect cells infected with recombinant baculovirus BAC-HER2
Nature of the experiment: Determination of HER2 kinase inhibitory activity. The experiment is classed as biochemical. The settings on record: compound at 1.0 μM, poly-Glu:Tyr (4:1) substrate, [γ-32P]ATP, read-out: inhibitory rate (%) at 1.0 μM. Here is the method:
Human HER2 gene was cloned by RT-PCR using total RNA prepared from MCF7 cells as a template. The primer used for RT-PCR was prepared in consideration of the information of nucleotide sequence (Genbank Accession No. M11730) of HER2 gene by adding a nucleotide sequence encoding DYKDDDD peptide and a restriction enzyme recognition sequence to a nucleotide sequence (corresponding to 2176-3918 of Genbank Accession No. M11730 as a base, 676-1255 amino acids of Genbank Accession No. NP_004439 as a protein) encoding the HER2 intracellular domain region such that the protein contains an N-terminal DYKDDDD peptide tag. The primer nucleotide sequence is shown below.
SF-21 cells were sown at 1×10^6 cells/mL in Sf-900II SFM medium (1 L, Invitrogen) containing 10% fetal bovine serum (trace), 50 mg/L gentamicin (Invitrogen) and 0.1% Pluronic F-68 (Invitrogen), and shaking culture was performed using a 2 L volume Erlenmeyer flask at 27° C., 100 rpm. After culturing for 24 hr, recombinant baculovirus BAC-HER2 (13.4 mL) was added, and the mixture was further cultured for 3 days. The culture medium was centrifuged at 2,000 rpm for 5 min to give virus-infected cells. The infected cells were washed with a phosphate buffered saline (Invitrogen), centrifuged under the same conditions, and the cells were preserved at −80° C. The cryopreserved cells were thawed in ice, suspended in buffer A (50 mM Tris buffer (30 mL, pH 7.4) containing 20% glycerol, 0.15 M NaCl) supplemented with Complete Protease Inhibitor (Boehringer), and ruptured 3 times with a Polytron homogenizer (Kinematica) at 20,000 rpm for 30 sec. The ruptured solution was clarified by centrifugation at 40,000 rpm for 30 min, and filtered with a 0.45 μm filter. The filtrate was passed through a column packed with Anti-FLAG M2 Affinity Gel (4 mL, Sigma-Aldrich) at a flow rate of about 0.5 mL/min. The column was washed with buffer A, and eluted with buffer A containing 100 μg/mL of FLAG peptide. The eluent was concentrated with Vivaspin 20 (Vivascience) having a molecular weight cut off of 30K. The concentrate was purified by gel filtration using Hi Load 16/60 Superdex 200 pg (GE Healthcare Bioscience) equilibrated with buffer A. The fractions containing HER2 intracellular domain were collected and cryopreserved at −80° C.
HER2 kinase reaction was performed using a 96 well plate. As a buffer for kinase reaction, a buffer having a composition of 50 mM Tris-HCl (pH 7.5), 5 mM MnCl2, 2 mM dithiothreitol, 0.01% Tween-20 was used. The compound of the present invention was dissolved in dimethyl sulfoxide (DMSO), and diluted with the kinase reaction buffer so that DMSO concentration would be 0.1% during kinase reaction. This compound solution (10 μL) was mixed with a kinase reaction buffer […] containing HER2 intracellular domain (0.625 μg/mL) obtained in Experimental Example 1B and polypeptide substrate poly-Glu:Tyr (4:1) (Sigma Ltd., 12.5 μg/mL), and the mixture was stood at room temperature for 5 min. Then, a kinase reaction buffer (20 μL) containing 125 μM ATP and 45 μCi/mL [γ-^32P]ATP was added, and the kinase reaction was initiated with 50 μL of the final reaction mixture. A kinase reaction was performed at room temperature for 10 min, and the kinase reaction was quenched by addition of 20% TCA solution (50 μL). The mixture after completion of the reaction was stood at room temperature for 30 min, and acid insoluble fractions in the mixture after completion of the reaction were collected in a 96 well GF/C filter plate (PerkinElmer) using a cell harvester (PerkinElmer). Thereafter, the filter containing the acid insoluble fractions was washed with 3% phosphoric acid solution. After washing, the filter plate was dried at 45° C. for 60 min, and 25 μL of MicroScinti 0 (PerkinElmer) was added. The radioactivity was measured using TopCount (PerkinElmer). HER2 kinase inhibitory rate (%) of the test compound was calculated by the following formula: […]

The subject of experiment [2] is human breast cancer cell BT-474. As to the kind of experiment: Inhibitory action on breast cancer cell BT-474 proliferation in vitro. In kind it is cell-based. The settings on record: 120 h, BT-474 cells, cultured for 5 days with compound, SRB protein content. Here is the method: A suspension of human breast cancer cell BT-474 (100 μl (6,000 cells)) were plated in a 96-well microplate and cultured in an incubator (37° C., 5% carbon dioxide). On the following day, 100 μl of a solution of each test compound previously diluted serially in 2-fold, was added, and the cells were cultured for 5 days. After the culture medium containing the test compound was removed, the cells were washed and fixed with 50% trichloroacetic acid, after which a 0.4% (w/v) SRB dye solution (dissolved in 1% acetic acid) was added to stain as well as fix the cell protein (Skehan et al., Journal of the National Cancer Institute, Vol. 82, pp. 1107-1112, 1990). After washing with a 1% acetic acid solution, 100 μl of extract solution (10 mM, Tris buffer) was added to extract the dye and the absorbance was measured at a wavelength of 550 nm to quantify the amount of cells as protein content. Taking as 100% the protein content for the control group, which received no test compound solution, the ratio of the residual protein content for each treatment group was determined, and the compound concentration required to achieve 50% suppression of the residual cell content relative to the control (IC50 value) was calculated.

Structures can show the parent of a compound that is named as a salt.

T1 sequence (P04626 676-1255): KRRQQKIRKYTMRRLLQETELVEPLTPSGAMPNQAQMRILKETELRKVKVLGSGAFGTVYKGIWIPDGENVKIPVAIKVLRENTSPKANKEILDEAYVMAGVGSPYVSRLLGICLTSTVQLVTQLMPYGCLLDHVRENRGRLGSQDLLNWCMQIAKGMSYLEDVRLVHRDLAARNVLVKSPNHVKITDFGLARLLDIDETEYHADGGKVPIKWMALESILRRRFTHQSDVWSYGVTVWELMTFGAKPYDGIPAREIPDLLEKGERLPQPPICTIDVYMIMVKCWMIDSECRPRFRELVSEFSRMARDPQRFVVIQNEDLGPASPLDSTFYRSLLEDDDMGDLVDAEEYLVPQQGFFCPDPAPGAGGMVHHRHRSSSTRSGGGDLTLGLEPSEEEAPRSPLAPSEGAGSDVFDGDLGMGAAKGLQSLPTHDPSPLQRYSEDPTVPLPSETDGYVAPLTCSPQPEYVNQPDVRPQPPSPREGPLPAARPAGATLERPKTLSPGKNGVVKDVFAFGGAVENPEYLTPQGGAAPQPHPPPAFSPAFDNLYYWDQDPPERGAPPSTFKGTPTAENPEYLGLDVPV

With `CC(C)(C)NC(=O)c1cccc(Oc2ccc(Nc3ncnc4ccn(CCO)c34)cc2Cl)n1` [Example 29, N-(tert-butyl)-6-(2-chloro-4-{[5-(2-hydroxyethyl)-5H-pyrrolo[3,2-d]pyrimidin-4-yl]amino}phenoxy)pyridine-2-carboxamide], the inhibition at 1 µM in experiment [1] was 100%.

`CN1C(=O)Cc2c(Oc3ccc(Nc4ncnc5cc(Cl)n(CCO)c45)cc3Cl)cccc21` [Example 170, 4-(2-chloro-4-{[6-chloro-5-(2-hydroxyethyl)-5H-pyrrolo[3,2-d]pyrimidin-4-yl]amino}phenoxy)-1-methyl-1,3-dihydro-2H-indol-2-one]: in experiment [1], the inhibition at 1 µM is 97%.

Consider `O=C1Cc2c(cccc2Oc2ccc(Nc3ncnc4ccn(CCO)c34)cc2Cl)N1` [Example 28, 4-(2-chloro-4-{[5-(2-hydroxyethyl)-5H-pyrrolo[3,2-d]pyrimidin-4-yl]amino}phenoxy)-1,3-dihydro-2H-indol-2-one], for which the inhibition at 1 µM in experiment [1] turned out to be 100%. Further, the IC50 in experiment [2] was below 0.1 µM.

For `OCCn1ccc2ncnc(Nc3ccc(Oc4cccc5sccc45)c(Cl)c3)c21` [Example 83, 2-(4-{[4-(1-benzothiophen-4-yloxy)-3-chlorophenyl]amino}-5H-pyrrolo[3,2-d]pyrimidin-5-yl)ethanol], the inhibition at 1 µM in experiment [1] worked out at 99%.

In the case of `CC(C)(C)NC(=O)c1cncc(Oc2ccc(Nc3ncnc4ccn(CCO)c34)cc2Cl)c1` [Example 26, N-(tert-butyl)-5-(2-chloro-4-{[5-(2-hydroxyethyl)-5H-pyrrolo[3,2-d]pyrimidin-4-yl]amino}phenoxy)nicotinamide], the inhibition at 1 µM in experiment [1] came to 100%. Also, the IC50 in experiment [2] was below 0.1 µM.

With `OCCn1ccc2ncnc(Nc3ccc(Oc4cccc5[nH]ccc45)c(Cl)c3)c21` [Example 10, 2-(4-{[3-chloro-4-(1H-indol-4-yloxy)phenyl]amino}-5H-pyrrolo[3,2-d]pyrimidin-5-yl)ethanol], the inhibition at 1 µM in experiment [1] amounted to 99%. Further, in experiment [2], the IC50 was below 0.1 µM.

Turning to `CC(C)(CO)C(=O)NCCn1ccc2ncnc(Nc3ccc(Oc4ccn5ccnc5c4)c(Cl)c3)c21` [Example 164, N-[2-(4-{[3-chloro-4-(imidazo[1,2-a]pyridin-7-yloxy)phenyl]amino}-5H-pyrrolo[3,2-d]pyrimidin-5-yl)ethyl]-3-hydroxy-2,2-dimethylpropanamide], in experiment [1], the inhibition at 1 µM was 100%.

In the case of `CC(C)(CO)C(=O)NCCn1ccc2ncnc(Nc3ccc(Oc4cccc5sccc45)c(Cl)c3)c21` [Example 114, N-[2-(4-{[4-(1-benzothiophen-4-yloxy)-3-chlorophenyl]amino}-5H-pyrrolo[3,2-d]pyrimidin-5-yl)ethyl]-3-hydroxy-2,2-dimethylpropanamide], in experiment [2], the IC50 was below 0.1 µM.

Consider `OCCn1ccc2ncnc(Nc3ccc(Oc4cccc5[nH]ncc45)c(Cl)c3)c21` [Example 95, 2-(4-{[3-chloro-4-(1H-indazol-4-yloxy)phenyl]amino}-5H-pyrrolo[3,2-d]pyrimidin-5-yl)ethanol], for which the inhibition at 1 µM in experiment [1] was determined as 100%. In addition, in experiment [2], the IC50 is below 0.1 µM.

With `CC(C)(CO)C(=O)NCCn1ccc2ncnc(Nc3ccc(Oc4ccc5ccnn5c4)c(Cl)c3)c21` [Example 159, N-[2-(4-{[3-chloro-4-(pyrazolo[1,5-a]pyridin-6-yloxy)phenyl]amino}-5H-pyrrolo[3,2-d]pyrimidin-5-yl)ethyl]-3-hydroxy-2,2-dimethylpropanamide methanesulfonate], in experiment [1], the inhibition at 1 µM was determined as 100%.

As to `Cn1ccc2ncnc(Nc3ccc(Oc4cccc5[nH]ncc45)c(Cl)c3)c21` [Example 86, N-[3-chloro-4-(1H-indazol-4-yloxy)phenyl]-5-methyl-5H-pyrrolo[3,2-d]pyrimidin-4-amine], in experiment [2], the IC50 was below 0.1 µM.

For `CC(C)(O)CC(=O)NCCn1ccc2ncnc(Nc3ccc(Oc4ccc5ccnn5c4)c(Cl)c3)c21` [Example 147, N-[2-(4-{[3-chloro-4-(pyrazolo[1,5-a]pyridin-6-yloxy)phenyl]amino}-5H-pyrrolo[3,2-d]pyrimidin-5-yl)ethyl]-3-hydroxy-3-methylbutanamide hydrochloride], in experiment [2], the IC50 is below 0.1 µM.

`CC(C)(CO)C(=O)NCCn1ccc2ncnc(Nc3ccc(Oc4cccc5sccc45)c(Cl)c3)c21` [Example 127, N-[2-(4-{[4-(1-benzothiophen-4-yloxy)-3-chlorophenyl]amino}-5H-pyrrolo[3,2-d]pyrimidin-5-yl)ethyl]-3-hydroxy-2,2-dimethylpropanamide tosylate]: the inhibition at 1 µM in experiment [1] worked out at 99%.

For `CC(C)(CO)C(=O)NCCn1ccc2ncnc(Nc3ccc(Oc4ccn5ncnc5c4)c(Cl)c3)c21` [Example 166, N-[2-(4-{[3-chloro-4-([1,2,4]triazolo[1,5-a]pyridin-7-yloxy)phenyl]amino}-5H-pyrrolo[3,2-d]pyrimidin-5-yl)ethyl]-3-hydroxy-2,2-dimethylpropanamide], the IC50 in experiment [2] is below 0.1 µM.
